# Measured values as given in patent publication US20110053964A1, “4-AMINOQUINAZOLINE DERIVATIVES AND METHODS OF USE THEREOF” (priority 2006, published 2011).
# How the values were obtained:
# [1] = Pharmacokinetics in rats, intravenous; type: in vivo, Sprague-Dawley rats; settings: rat, single intravenous bolus 2 mg/kg; for half-life compared to lapatinib: tosylate salt (FIGS. 2 and 3)
# Protocol: Rats were anesthetized using pentobarbital (IP 40 mg/kg) prior to administration of compound. […] The rats were administered a single bolus 2 mg/kg dose of compound via jugular cannula, followed by a wash-out with saline. Blood samples (0.25 mL) were taken from the jugular at 5, 15 and 30 minutes and at 1, 2, 4, 6, 9, 12, and 24 hours post-dosing. Blood samples were centrifuged within 15 minutes of removal from the animal, centrifuged, and the plasma fraction removed and stored at −20° C. until analysis. Samples were analyzed by LC-MS.
# [2] = Pharmacokinetics in rats, oral dosing; settings: rat, oral dosing 20 mg/kg, tosylate salt; data not shown
"half-life ([1]; Sprague-Dawley, tosylate salt, plasma)",half life compared to lapatinib [2],Compound,half-life compared to lapatinib [1]
1 ± 0.05 h,–,"CS(=O)(=O)CCNCc1ccc(-c2ccc3ncnc(Nc4ccc(OCc5cccc(F)c5)c(Cl)c4)c3c2)o1.Cc1ccc(S(=O)(=O)O)cc1 [Lapatinib, [3-Chloro-4-(3-fluorobenzyloxy)phenyl](6-{5-[(2-methanesulfonylethylamino)-methyl]furan-2-yl}-quinazolin-4-yl)amine 4-toluenesulfonate salt, reference compound]",–
–,longer half lives than lapatinib,"Cc1ccc(S(=O)(=O)O)cc1.Cc1ccc(S(=O)(=O)O)cc1.[2H]C([2H])(NC([2H])([2H])C([2H])([2H])S(=O)(=O)C([2H])([2H])[2H])c1ccc(-c2ccc3ncnc(Nc4ccc(OCc5cccc(F)c5)c(Cl)c4)c3c2)o1 [Compound 102, [3-Chloro-4-(3-fluoro-benzyloxy)-phenyl]-(6-{5-[(2-d3-methanesulfonyl-1,1,2,2-4-ethylamino)-d2-methyl]-furan-2-yl}-quinazolin-4-yl)amine di-tosylate]",significantly longer half-lives than lapatinib
–,longer half lives than lapatinib,"Cc1ccc(S(=O)(=O)O)cc1.Cc1ccc(S(=O)(=O)O)cc1.[2H]C([2H])(CS(C)(=O)=O)NC([2H])([2H])c1ccc(-c2ccc3ncnc(Nc4ccc(OCc5cccc(F)c5)c(Cl)c4)c3c2)o1 [Compound 101, [3-Chloro-4-(3-fluorobenzyloxy)phenyl]-(6-{5-[(2-methanesulfonyl-1,1-d2-ethylamino)-d2-methyl]-furan-2-yl}-quinazolin-4-yl)amine di-tosylate]",significantly longer half-lives than lapatinib
